Results as given in patent publication US6521623B1, “N,N'-disubstituted benzimidazolone derivatives with affinity at the serotonin and dopamine receptors” (Boehringer Ingelheim Pharma KG, priority 2000, dated 2003).

Tests used:
5-HT2A [1] = molecular target: T1, 5-HT2A (Rattus norvegicus, UniProt P14842); assay: 5-HT2A Radioligand Receptor Binding Assay ([3H]-Ketanserin, cerebral frontal cortex membranes); settings: 0.5 nM [3H]-Ketanserin
T1 construct: Cerebral frontal cortex was homogenized in 10 volumes of ice cold 0.32 M sucrose; from tissue; host or cells: rat cerebral frontal cortex membranes
Description: 5-HT2A Radioligand Receptor Binding Assay
Rats (male Sprague-Dawley, 200-250 g) were used. Cerebral frontal cortex was homogenized in 10 volumes of ice cold 0.32 M sucrose in 5 mM Tris-HCl ([…]) buffer. After centrifugation of the homogenate (1,000×g for 10 minutes) the supernatant was then recentrifuged at 48,000×g for 15 minutes. The resulting pellet was gently homogenized in an equal volume of 50 mM Tris-HCl buffer (pH 7.4) and incubated at 37° C. for 10 minutes. Membranes were then collected by centrifugation as above described and finally resuspended in 10 volumes of 50 mM Tris-HCl buffer (pH 7.4).
For displacement experiments membranes (980 μl) were diluted in 50 mM Tris-HCl buffer (pH 7.4) to a final concentration of 1:100 (w/v); the tissue suspension was then incubated at 37° C. for 10 minutes in a final volume of 1 ml in the presence of 0.5 nM [^3H]-Ketanserin. Non-specific binding was determined by incubating similar samples with unlabelled methysergide (100 μM). After incubation, samples prepared in a 24 wells cell culture cluster (Costar) were rapidly filtered by Inotech Cell Harvester (IH 201 filters). The filters were washed three times with 2 ml ice-cold Tris-HCl buffer and placed in polyethylene vials, then 4 ml of Filter Count scintillation cocktail (Packard) were added. The radioactivity present was counted by liquid scintillation spectrometry.
The affinity values (IC50) for the compounds were obtained by a nonlinear least squares regression analysis on the basis of a one binding site model.

5-HT2A [2] = molecular target: 5-HT2A (Mus musculus, UniProt P35363); assay: 5-HT2 Functional Assay (PI Turnover) in cerebral cortex miniprisms; assay type: biochemical; settings: 10 μM compound, inhibition of PI turnover accumulation induced by 100 μM 5-HT
Description: 5-H T2 Functional Assay (PI Turnover)
Cross-chopped miniprisms (350×350 μm) were prepared from mouse whole cerebral cortices and incubated for 60 minutes at 37° C. in Krebs-Henseleit buffer containing 2 g/l glucose.
Cerebral cortex miniprisms were distributed in vials and incubated for 30 minutes with approximately 170 nM [^3H]-myoinositol (10-20 Ci/mmol) and […] lithium chloride. Samples were divided in different groups in triplicate: control, 100 μM 5-HT, 10 and 30 μM flibanserin+100 μM 5-HT, as standards, and 10 μM of the different compound under investigation+100 μM 5-HT. When 5-HT was added the incubation continued for 45 minutes. Compounds under investigation and flibanserin were added 10 minutes before dispensing 5-HT. Incubation was terminated by the addition of 940 μl chloroform-methanol (1:2 v/v). Further aliquots of chloroform (310 μl) and water (310 μl) were added and labeled inositol phosphates (1 Ps) were extracted from the aqueous phase by ion exchange chromatography using Dowex resin in the formate form. After addition of 10 ml of PicoFluor 40 scintillation cocktail (Packard), the radioactivity present in an aliquot (400 μl) of the aqueous extract was counted by liquid scintillation spectrometry.

5-HT1A [3] = molecular target: T2, 5-HT1A (Homo sapiens, UniProt P08908); assay: 5HT1A Radioligand Receptor Binding Assay ([3H]-8-OH-DPAT, CHO cell membranes); parameters: expressed in transfected cells; host or cells: CHO cells; settings: [3H]-8-OH-DPAT; CHO membranes, human 5-HT1A; read-out: 5-HT1A Receptor Binding IC50
T2 sequence (P08908 1-422): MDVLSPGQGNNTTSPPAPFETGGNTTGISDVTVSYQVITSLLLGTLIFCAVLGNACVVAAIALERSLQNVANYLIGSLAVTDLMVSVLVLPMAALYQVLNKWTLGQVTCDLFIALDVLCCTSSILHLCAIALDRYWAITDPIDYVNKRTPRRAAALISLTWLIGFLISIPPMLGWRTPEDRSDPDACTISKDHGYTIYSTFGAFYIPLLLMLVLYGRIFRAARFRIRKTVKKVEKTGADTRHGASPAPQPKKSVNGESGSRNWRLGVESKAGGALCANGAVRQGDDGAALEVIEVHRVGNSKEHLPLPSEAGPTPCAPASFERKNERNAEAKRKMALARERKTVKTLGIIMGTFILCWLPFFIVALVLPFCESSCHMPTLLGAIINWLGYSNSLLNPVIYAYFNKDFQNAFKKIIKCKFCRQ
Method in brief: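 CHO-cell membranes expressing human 5-HT1A incubated with [3H]-8-OH-DPAT (0.6-0.7 nM) for 60 minutes at 27° C, filtered and scintillation counted; non-specific binding defined with 10^−5 M 5-HT. Compounds tested singly at 10^−7 M as % of control specific binding; IC50 from one-site nonlinear regression.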

5-HT1A [4] = molecular target: T2, 5-HT1A; assay: 5-HT1 Functional Assay (cAMP) in CHO/5-HT1A cells; assay type: cell-based; parameters: expressed in transfected cells; host or cells: CHO/5-HT1A cells
Description: 5-HT1 Functional Assay (cAMP)
CHO/5-HT1A cells were random seeded at a density of about 200,000/well in 24 well plates the day prior to the experiment. On the day of the experiment, cells were pretreated for 15 minutes at 37° C. with 500 μM isobutylmethylxantine (IBMX) dissolved in culture medium without serum. Wells were then divided in different groups in duplicate as follows: control, 10 μM FSK, 10 μM FSK+1 μM 5-HT as positive standard and 10 μM FSK+10 μM of the different compound under evaluation. Sample solutions were added and incubated for additional 15 minutes at 37° C. After incubation, the medium was aspirated and the reaction stopped by adding 200 μl of lysis buffer. Plates were shaken for 5 minutes, then the lysate was removed and samples were stored at 4° C. until the day of the assay. For the cAMP evaluation, samples were properly diluted and the cAMP content was measured by an enzyme immunoassay system.

Chain of 5-HT2A (Mus musculus, UniProt P35363) (P35363 whole entry, looked up): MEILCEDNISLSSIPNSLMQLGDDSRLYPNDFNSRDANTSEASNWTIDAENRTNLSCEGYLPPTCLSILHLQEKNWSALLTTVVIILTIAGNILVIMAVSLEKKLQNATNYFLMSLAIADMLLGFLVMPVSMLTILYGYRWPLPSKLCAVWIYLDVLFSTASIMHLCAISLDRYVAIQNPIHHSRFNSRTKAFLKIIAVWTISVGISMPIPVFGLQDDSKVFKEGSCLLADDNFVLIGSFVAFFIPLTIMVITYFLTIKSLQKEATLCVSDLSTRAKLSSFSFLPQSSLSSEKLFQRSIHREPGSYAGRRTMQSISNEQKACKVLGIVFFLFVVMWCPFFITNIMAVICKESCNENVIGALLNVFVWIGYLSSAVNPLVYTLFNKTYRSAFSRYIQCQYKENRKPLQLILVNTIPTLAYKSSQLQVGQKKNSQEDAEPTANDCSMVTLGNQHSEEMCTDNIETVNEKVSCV
T1 sequence (P14842 whole entry): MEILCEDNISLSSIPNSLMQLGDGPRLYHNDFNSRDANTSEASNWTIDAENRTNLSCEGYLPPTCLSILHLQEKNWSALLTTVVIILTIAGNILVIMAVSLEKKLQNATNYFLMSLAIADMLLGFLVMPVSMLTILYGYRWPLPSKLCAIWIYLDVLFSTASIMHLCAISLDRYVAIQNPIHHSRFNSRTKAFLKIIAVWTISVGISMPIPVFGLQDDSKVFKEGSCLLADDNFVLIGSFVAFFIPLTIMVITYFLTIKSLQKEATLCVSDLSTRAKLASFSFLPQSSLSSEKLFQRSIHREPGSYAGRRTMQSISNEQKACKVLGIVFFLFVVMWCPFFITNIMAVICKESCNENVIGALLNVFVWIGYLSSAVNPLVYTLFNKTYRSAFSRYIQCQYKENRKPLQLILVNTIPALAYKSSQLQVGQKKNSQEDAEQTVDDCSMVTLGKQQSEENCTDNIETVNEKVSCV

Row | Structure (SMILES) | IC50 (5-HT2A [1]) [nM] | 5-HT2A PI Turnover % inhibition (5-HT2A [2]) [%] | IC50 (5-HT1A [3]) [nM] | inhibition at 10 µM (5-HT1A [4]) [%]
1 | Cc1cccc(N2CCN(C/C=C\Cn3c(=O)n(CCNS(C)(=O)=O)c4ccccc43)CC2)c1 [Compound 514] | 74 | 41 | 7.9 | 67
2 | CS(=O)(=O)NCCn1c(=O)n(C/C=C/CN2CCN(c3cccc(Cl)c3)CC2)c2ccccc21 [Compound 521] | 30 | 48 | 0.61 | 67
